Measurements reported in patent US20190358196A1, “PI 4-KINASE INHIBITOR AS A THERAPEUTIC FOR VIRAL HEPATITIS, CANCER, MALARIA. AUTOIMMUNE DISORDERS AND INFLAMMATION, AND A RADIOSENSITIZER AND IMMUNOSUPPRESSANT” (priority 2016, published 2019).

Key:
[1] = tested on: cell culture-derived HCV (HCVcc)
[2] = target: PI4Ka (Homo sapiens, UniProt P42356); test: HotSpot lipid kinase inhibition assay
Chain of PI4Ka (P42356 whole entry): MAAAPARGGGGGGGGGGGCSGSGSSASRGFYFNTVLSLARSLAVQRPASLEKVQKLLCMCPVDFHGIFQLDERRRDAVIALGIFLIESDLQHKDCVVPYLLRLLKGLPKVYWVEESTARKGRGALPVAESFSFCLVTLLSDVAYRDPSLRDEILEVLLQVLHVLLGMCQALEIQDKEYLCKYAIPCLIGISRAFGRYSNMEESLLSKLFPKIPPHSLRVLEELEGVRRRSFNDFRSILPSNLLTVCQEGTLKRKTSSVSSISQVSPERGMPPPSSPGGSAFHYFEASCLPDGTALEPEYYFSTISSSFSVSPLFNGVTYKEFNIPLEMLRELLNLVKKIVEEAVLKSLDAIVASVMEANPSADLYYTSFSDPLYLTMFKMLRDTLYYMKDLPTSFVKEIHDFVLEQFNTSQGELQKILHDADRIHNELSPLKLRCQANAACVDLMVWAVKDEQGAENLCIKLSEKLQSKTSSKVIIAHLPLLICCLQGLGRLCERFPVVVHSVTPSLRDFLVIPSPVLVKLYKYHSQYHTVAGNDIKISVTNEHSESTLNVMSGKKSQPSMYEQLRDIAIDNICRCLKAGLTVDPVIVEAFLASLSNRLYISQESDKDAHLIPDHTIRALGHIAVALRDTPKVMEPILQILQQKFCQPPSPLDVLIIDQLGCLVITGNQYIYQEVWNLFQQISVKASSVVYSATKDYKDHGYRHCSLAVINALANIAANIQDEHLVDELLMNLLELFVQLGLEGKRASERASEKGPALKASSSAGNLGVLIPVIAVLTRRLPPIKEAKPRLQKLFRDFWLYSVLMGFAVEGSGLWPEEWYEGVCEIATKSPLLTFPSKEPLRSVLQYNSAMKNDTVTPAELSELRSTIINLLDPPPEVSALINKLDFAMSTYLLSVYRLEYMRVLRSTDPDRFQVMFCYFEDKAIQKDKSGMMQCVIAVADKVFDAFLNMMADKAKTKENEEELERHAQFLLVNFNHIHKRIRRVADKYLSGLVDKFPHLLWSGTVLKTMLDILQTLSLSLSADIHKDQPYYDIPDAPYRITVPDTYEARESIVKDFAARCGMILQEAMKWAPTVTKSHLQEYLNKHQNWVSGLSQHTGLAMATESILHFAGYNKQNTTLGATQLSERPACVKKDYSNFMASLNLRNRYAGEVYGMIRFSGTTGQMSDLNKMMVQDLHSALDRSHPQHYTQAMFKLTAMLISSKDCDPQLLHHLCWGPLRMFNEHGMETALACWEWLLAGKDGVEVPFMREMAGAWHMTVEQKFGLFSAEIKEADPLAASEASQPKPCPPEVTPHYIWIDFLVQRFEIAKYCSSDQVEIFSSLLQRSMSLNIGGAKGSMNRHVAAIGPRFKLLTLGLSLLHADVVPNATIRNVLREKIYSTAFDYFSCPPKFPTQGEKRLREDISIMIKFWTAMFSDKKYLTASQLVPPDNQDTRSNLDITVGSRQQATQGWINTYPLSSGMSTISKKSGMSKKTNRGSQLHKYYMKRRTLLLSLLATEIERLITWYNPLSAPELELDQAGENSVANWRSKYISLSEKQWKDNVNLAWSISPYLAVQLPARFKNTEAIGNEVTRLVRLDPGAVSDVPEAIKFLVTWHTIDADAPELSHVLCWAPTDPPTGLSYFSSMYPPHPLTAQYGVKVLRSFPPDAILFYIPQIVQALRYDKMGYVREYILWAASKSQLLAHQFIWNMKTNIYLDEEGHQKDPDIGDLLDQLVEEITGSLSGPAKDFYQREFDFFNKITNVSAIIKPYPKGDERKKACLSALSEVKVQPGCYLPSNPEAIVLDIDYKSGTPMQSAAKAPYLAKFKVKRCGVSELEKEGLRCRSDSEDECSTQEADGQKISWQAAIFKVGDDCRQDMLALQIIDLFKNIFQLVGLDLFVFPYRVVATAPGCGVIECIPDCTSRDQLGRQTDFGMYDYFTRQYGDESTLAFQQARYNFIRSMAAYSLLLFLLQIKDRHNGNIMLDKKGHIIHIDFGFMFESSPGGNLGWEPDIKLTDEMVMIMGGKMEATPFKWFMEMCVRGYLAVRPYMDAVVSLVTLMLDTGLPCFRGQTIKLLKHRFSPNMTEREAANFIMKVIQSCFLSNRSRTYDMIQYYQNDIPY

| IC50 [2] [nM] | Compound | SI (CC50/EC50) [1] |
| --- | --- | --- |
| – | Human interferon alpha-2b [rIFNa-2b] | >15.9 |
| 322 | Oc1cccc(-c2nc(N3CCOCC3)c3oc4ncccc4c3n2)c1 [PI-103] | – |
